Measurements from patent US8361998B2, “Compounds and their use as IKACh blockers” (AstraZeneca AB, priority 2010, dated 2013).
pIC50: −log10 of the molar value.

Biological target: T1, human cardiac ion channel proteins hKir3.1/Kir3.4 (Homo sapiens, UniProt P48544+P48549)
T1 construct: expressed in transfected cells
T1 sequence (P48549 1-501): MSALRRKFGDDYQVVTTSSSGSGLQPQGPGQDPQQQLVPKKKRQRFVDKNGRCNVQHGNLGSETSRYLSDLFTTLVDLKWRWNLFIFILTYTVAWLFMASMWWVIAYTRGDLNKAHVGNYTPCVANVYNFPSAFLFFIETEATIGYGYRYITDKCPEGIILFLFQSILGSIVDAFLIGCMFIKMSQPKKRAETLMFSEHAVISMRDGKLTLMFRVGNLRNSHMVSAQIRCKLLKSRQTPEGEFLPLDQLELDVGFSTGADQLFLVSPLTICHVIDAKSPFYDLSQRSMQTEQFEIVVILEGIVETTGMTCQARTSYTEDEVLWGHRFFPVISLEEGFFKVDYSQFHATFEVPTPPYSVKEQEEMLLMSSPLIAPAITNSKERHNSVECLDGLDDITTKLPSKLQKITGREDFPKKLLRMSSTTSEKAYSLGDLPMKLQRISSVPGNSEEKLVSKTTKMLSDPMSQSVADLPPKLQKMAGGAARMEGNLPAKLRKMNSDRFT
T1 sequence (P48544 1-419): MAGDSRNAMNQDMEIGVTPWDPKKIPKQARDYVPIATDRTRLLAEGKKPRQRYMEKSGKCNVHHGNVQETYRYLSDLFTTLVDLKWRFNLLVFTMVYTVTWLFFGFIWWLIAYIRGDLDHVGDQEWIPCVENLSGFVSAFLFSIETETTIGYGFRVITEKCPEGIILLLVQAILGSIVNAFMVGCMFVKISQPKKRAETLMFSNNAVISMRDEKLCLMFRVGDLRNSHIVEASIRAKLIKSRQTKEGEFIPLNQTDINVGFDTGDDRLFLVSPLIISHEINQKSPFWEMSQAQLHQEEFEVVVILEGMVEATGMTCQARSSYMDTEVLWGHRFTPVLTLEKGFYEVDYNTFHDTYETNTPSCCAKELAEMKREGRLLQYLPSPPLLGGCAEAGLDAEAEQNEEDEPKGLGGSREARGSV
Experiment: Atomic Absorption Screening (AAS) Rb efflux assay of hKir3.1/Kir3.4 block, carbachol/high K+ stimulated, 10-pt or 7-pt CR
Format: cell-based
Conditions: 10-pt CR (0.003 to 67 μmol/L), AAS Rb efflux, CHO-K1 cells expressing hKir3.1/Kir3.4; mean of >4 replicates; read-out: IKACh IC50 10-pt CR, AAS
Method in brief: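 Mean IC50s derive from >4 replicates over 0.003–67 μmol/L (10-point) or >3 replicates over 0.037–27 μmol/L (7-point), both threefold steps. Rb-loaded (3 h, 37° C) CHO-K1 cells stably expressing hKir3.1/Kir3.4 saw compound for 5 min at RT before 10-min channel opening by carbachol 10 μM/KCl 20 mM final. Released Rb was quantified by atomic absorption.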

Row | pIC50 | Structure (SMILES)
1 | 5.48 | CCC[C@@H](CN1CC(O)C1)N(C(=O)c1ccc(Cl)cc1)C(C)C [Example 34.1, 4-Chloro-N-[(2S)-1-(3-hydroxyazetidin-1-yl)pentan-2-yl]-N-(propan-2-yl)benzamide]
2 | 4.96 | CCC[C@@H](CN1CC(O)C1)N(C(=O)c1ccc(F)c(F)c1)C(C)C [Example 34.2, 3,4-Difluoro-N-[(2S)-1-(3-hydroxyazetidin-1-yl)pentan-2-yl]-N-(propan-2-yl)benzamide]
3 | 5.47 | CN(C(=O)c1ccc(Cl)cc1)[C@@H](CN1CC(O)C1)C1CCC1 [Example 35.1, 4-Chloro-N-[(1R)-1-cyclobutyl-2-(3-hydroxyazetidin-1-yl)ethyl]-N-methylbenzamide]
4 | 4.85 | CN(C(=O)c1ccc(C#N)cc1)[C@@H](CN1CC(O)C1)C1CCC1 [Example 35.2, 4-Cyano-N-[(1R)-1-cyclobutyl-2-(3-hydroxyazetidin-1-yl)ethyl]-N-methylbenzamide]
5 | 5.06 | CN(C(=O)c1ccc(OC(F)F)cc1)[C@@H](CN1CC(O)C1)C1CCC1 [Example 35.3, N-[(1R)-1-Cyclobutyl-2-(3-hydroxyazetidin-1-yl)ethyl]-4-(difluoromethoxy)-N-methylbenzamide]
6 | 6.18 | Cc1cc(C(=O)N(C)[C@@H](CN2CC(O)C2)C2CCC2)ccc1F [Example 35.4, N-[(1R)-1-Cyclobutyl-2-(3-hydroxyazetidin-1-yl)ethyl]-4-fluoro-N,3-dimethylbenzamide]
7 | 4.96 | CN(C(=O)c1ccc(F)cc1)[C@@H](CN1CC(O)C1)C1CCC1 [Example 35.5, N-[(1R)-1-Cyclobutyl-2-(3-hydroxyazetidin-1-yl)ethyl]-4-fluoro-N-methylbenzamide]
8 | 5.34 | CN(C(=O)c1ccc(F)cc1Cl)[C@@H](CN1CC(O)C1)C1CCC1 [Example 35.6, 2-Chloro-N-[(1R)-1-cyclobutyl-2-(3-hydroxyazetidin-1-yl)ethyl]-4-fluoro-N-methylbenzamide]
9 | 5.41 | CN(C(=O)c1ccc(F)c(F)c1)[C@@H](CN1CC(O)C1)C1CCC1 [Example 35.7, N-[(1R)-1-Cyclobutyl-2-(3-hydroxyazetidin-1-yl)ethyl]-3,4-difluoro-N-methylbenzamide]
10 | 5.10 | CN(C(=O)c1cccc(C(F)F)c1)[C@@H](CN1CC(O)C1)C1CCC1 [Example 35.8, N-[(1R)-1-Cyclobutyl-2-(3-hydroxyazetidin-1-yl)ethyl]-3-(difluoromethyl)-N-methylbenzamide]
11 | 5.34 | CN(C(=O)c1ccc(F)c(C#N)c1)[C@@H](CN1CC(O)C1)C1CCC1 [Example 35.9, 3-Cyano-N-[(1R)-1-cyclobutyl-2-(3-hydroxyazetidin-1-yl)ethyl]-4-fluoro-N-methylbenzamide]
12 | 4.82 | CN(C(=O)c1ccc(F)cc1F)[C@@H](CN1CC(O)C1)C1CCC1 [Example 35.10, N-[(1R)-1-Cyclobutyl-2-(3-hydroxyazetidin-1-yl)ethyl]-2,4-difluoro-N-methylbenzamide]

More lines, now with the values behind:

Row | Structure (SMILES) | pIC50
13 | CC[C@H](C)[C@@H](CN1CC(O)C1)N(C)C(=O)c1ccccc1 [Example 29.4, N-((2S,3S)-1-(3-Hydroxyazetidin-1-yl)-3-methylpentan-2-yl)-N-methylbenzamide] | 4.92
14 | CC[C@H](C)[C@@H](CN1CC(O)C1)N(C)C(=O)c1ccc(C#N)cc1 [Example 29.5, 4-Cyano-N-((2S,3S)-1-(3-hydroxyazetidin-1-yl)-3-methylpentan-2-yl)-N-methylbenzamide] | 4.92
15 | CC[C@H](C)[C@@H](CN1CC(O)C1)N(C)C(=O)c1ccc(OC)cc1 [Example 29.6, N-((2S,3S)-1-(3-Hydroxyazetidin-1-yl)-3-methylpentan-2-yl)-4-methoxy-N-methylbenzamide] | 5.80
16 | CC[C@H](C)[C@@H](CN1CC(O)C1)N(C)C(=O)c1cc(C)ccc1OC [Example 29.8, N-((2S,3S)-1-(3-Hydroxyazetidin-1-yl)-3-methylpentan-2-yl)-2-methoxy-N,5-dimethylbenzamide] | 4.96
17 | CC[C@H](C)[C@@H](CN1CC(O)C1)N(C)C(=O)c1cc(Cl)ccc1OC [Example 29.9, 5-Chloro-N-((2S,3S)-1-(3-hydroxyazetidin-1-yl)-3-methylpentan-2-yl)-2-methoxy-N-methylbenzamide] | 4.80
18 | CO[C@H](C)[C@@H](CN1CC(O)C1)N(C)C(=O)c1ccc(Cl)cc1 [Example 30, 4-Chloro-N-((2R,3R)-1-(3-hydroxyazetidin-1-yl)-3-methoxybutan-2-yl)-N-methylbenzamide] | 5.20
19 | CCC[C@@H](CN1CC(OCC)C1)N(C)C(=O)c1ccc(Cl)cc1 [Example 31.1, (S)-4-Chloro-N-(1-(3-ethoxyazetidin-1-yl)pentan-2-yl)-N-methylbenzamide] | 6.37
20 | CCC[C@@H](CN1CC(OC)C1)N(C)C(=O)c1ccc(Cl)cc1 [Example 31.2, (S)-4-Chloro-N-(1-(3-methoxyazetidin-1-yl)pentan-2-yl)-N-methylbenzamide] | 5.23
21 | CCC[C@@H](CN1CC(OCC#N)C1)N(C)C(=O)c1ccc(Cl)cc1 [Example 31.3, 4-chloro-N-{(2S)-1-[3-(cyanomethoxy)azetidin-1-yl]pentan-2-yl}-N-methylbenzamide] | 5.77
22 | CCC[C@@H](CN1CC(OC(C)C)C1)N(C)C(=O)c1ccc(Cl)cc1 [Example 31.4, 4-chloro-N-methyl-N-{(25)-1-[3-(propan-2-yloxy)azetidin-1-yl]pentan-2-yl}benzamide] | 6.48
23 | CCCC[C@@H](CN1CC(O)C1)N(C)C(=O)c1ccc(Cl)cc1 [Example 33.1, (S)-4-chloro-N-(1-(3-hydroxyazetidin-1-yl)hexan-2-yl)-N-methylbenzamide] | 6.92
24 | CCCC[C@@H](CN1CC(O)C1)N(C)C(=O)c1ccc(F)c(F)c1 [Example 33.2, 3,4-Difluoro-N-[(2S)-1-(3-hydroxyazetidin-1-yl)hexan-2-yl]-N-methylbenzamide] | 6.49
25 | CCCC[C@@H](CN1CC(O)C1)N(C)C(=O)c1ccc(C#N)cc1F [Example 33.3, 4-Cyano-2-fluoro-N-[(2S)-1-(3-hydroxyazetidin-1-yl)hexan-2-yl]-N-methylbenzamide] | 6.08
26 | CCCC[C@@H](CN1CC(O)C1)N(C)C(=O)c1ccccc1 [Example 33.5, N-[(2S)-1-(3-Hydroxyazetidin-1-yl)hexan-2-yl]-N-methylbenzamide] | 6.00
27 | CCCC[C@@H](CN1CC(O)C1)N(C)C(=O)c1ccc(O)cc1 [Example 33.6, 4-Hydroxy-N-[(2S)-1-(3-hydroxyazetidin-1-yl)hexan-2-yl]-N-methylbenzamide] | 4.96
28 | CCCC[C@@H](CN1CC(O)C1)N(C)C(=O)c1ccc(F)c(Cl)c1 [Example 33.8, 3-Chloro-4-fluoro-N-[(2S)-1-(3-hydroxyazetidin-1-yl)hexan-2-yl]-N-methylbenzamide] | 6.80
29 | CCCC[C@@H](CN1CC(O)C1)N(C)C(=O)c1cc(F)ccc1F [Example 33.9, 2,5-Difluoro-N-[(2S)-1-(3-hydroxyazetidin-1-yl)hexan-2-yl]-N-methylbenzamide] | 5.37
30 | CCCC[C@@H](CN1CC(O)C1)N(C)C(=O)c1cccc(C(F)F)c1 [Example 33.10, 3-(Difluoromethyl)-N-[(2S)-1-(3-hydroxyazetidin-1-yl)hexan-2-yl]-N-methylbenzamide] | 5.96
